According to US20030087963A1, “Methods of preparing and using 2-hydroxy derivatives of sibutramine and its metabolites” (priority 2001, published 2003):
Where two headings read alike, the source gives them in different places.

What was measured:
[1] = target: T1, functional uptake of serotonin (5-HT) (Rattus norvegicus, UniProt P31652); assay: Inhibition of functional uptake of serotonin (5-HT) into synaptosomes from rat whole brain; assay type: biochemical
T1 construct: synaptosomes prepared from rat whole brain, hypothalamus, or corpora striata, respectively; from tissue; host or cells: rat whole brain synaptosomes
T1 sequence (P31652 whole entry): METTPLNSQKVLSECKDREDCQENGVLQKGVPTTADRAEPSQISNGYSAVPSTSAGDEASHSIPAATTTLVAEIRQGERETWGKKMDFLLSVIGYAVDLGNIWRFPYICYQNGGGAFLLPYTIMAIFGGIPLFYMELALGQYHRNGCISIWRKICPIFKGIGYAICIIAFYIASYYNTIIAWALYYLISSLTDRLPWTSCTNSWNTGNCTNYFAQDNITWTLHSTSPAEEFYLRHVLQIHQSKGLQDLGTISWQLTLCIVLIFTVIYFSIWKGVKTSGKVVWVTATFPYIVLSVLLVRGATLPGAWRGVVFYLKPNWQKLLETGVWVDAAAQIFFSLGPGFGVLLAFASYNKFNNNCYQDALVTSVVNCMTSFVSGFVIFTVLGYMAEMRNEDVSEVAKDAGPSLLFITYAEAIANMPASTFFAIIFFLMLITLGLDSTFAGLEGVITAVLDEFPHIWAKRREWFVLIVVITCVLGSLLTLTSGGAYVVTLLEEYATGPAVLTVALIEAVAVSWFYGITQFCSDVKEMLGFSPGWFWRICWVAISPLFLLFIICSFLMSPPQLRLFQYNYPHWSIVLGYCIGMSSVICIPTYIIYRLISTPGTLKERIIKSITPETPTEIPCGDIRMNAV
Description: (§1) The 2-hydroxy derivatives of the sibutramine metabolites N-desmethyl and N-didesmethylsibutramine (DMS and DDMS, respectively) were tested for their inhibition of functional uptake of serotonin (5-HT), norepinephrine (NE), or dopamine (DA), into synaptosomes prepared from rat whole brain, hypothalamus, or corpora striata, respectively, using methods known in the art. In addition, binding was determined at the nonselective muscarinic receptor and the […] from rat cerebral cortex and rat adipose tissue, respectively.
(§2) IC50 values (concentration inhibiting control activity by 50 percent) were then determined by nonlinear regression analysis of the inhibition curves and tabulated below.

[2] = target: T2, functional uptake of norepinephrine (NE) (Rattus norvegicus, UniProt Q63380); assay: Inhibition of functional uptake of norepinephrine (NE) into synaptosomes from rat hypothalamus; assay type: biochemical
T2 construct: synaptosomes prepared from rat whole brain, hypothalamus, or corpora striata, respectively; from tissue; host or cells: rat hypothalamus synaptosomes
T2 sequence (Q63380 1-617): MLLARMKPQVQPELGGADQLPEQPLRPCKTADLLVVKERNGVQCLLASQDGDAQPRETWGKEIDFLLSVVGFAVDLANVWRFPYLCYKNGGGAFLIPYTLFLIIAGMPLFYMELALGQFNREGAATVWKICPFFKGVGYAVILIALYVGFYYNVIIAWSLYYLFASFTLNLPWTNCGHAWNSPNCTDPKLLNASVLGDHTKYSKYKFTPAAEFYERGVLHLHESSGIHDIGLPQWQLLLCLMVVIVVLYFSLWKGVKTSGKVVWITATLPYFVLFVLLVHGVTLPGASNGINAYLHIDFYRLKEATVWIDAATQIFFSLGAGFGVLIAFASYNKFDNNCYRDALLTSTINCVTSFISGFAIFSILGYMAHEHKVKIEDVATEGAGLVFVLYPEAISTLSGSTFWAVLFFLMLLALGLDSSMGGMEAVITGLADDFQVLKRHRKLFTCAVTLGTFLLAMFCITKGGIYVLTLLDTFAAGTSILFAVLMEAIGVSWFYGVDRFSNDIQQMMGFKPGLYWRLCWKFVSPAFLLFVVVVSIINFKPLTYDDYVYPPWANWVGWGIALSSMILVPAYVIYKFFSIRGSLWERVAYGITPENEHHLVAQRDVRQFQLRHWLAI
Description: as §1, §2

[3] = target: T3, functional uptake of dopamine (DA) (Rattus norvegicus, UniProt P23977); assay: Inhibition of functional uptake of dopamine (DA) into synaptosomes from rat corpora striata; assay type: biochemical
T3 construct: synaptosomes prepared from rat whole brain, hypothalamus, or corpora striata, respectively; from tissue; host or cells: rat corpora striata synaptosomes
T3 sequence (P23977 whole entry): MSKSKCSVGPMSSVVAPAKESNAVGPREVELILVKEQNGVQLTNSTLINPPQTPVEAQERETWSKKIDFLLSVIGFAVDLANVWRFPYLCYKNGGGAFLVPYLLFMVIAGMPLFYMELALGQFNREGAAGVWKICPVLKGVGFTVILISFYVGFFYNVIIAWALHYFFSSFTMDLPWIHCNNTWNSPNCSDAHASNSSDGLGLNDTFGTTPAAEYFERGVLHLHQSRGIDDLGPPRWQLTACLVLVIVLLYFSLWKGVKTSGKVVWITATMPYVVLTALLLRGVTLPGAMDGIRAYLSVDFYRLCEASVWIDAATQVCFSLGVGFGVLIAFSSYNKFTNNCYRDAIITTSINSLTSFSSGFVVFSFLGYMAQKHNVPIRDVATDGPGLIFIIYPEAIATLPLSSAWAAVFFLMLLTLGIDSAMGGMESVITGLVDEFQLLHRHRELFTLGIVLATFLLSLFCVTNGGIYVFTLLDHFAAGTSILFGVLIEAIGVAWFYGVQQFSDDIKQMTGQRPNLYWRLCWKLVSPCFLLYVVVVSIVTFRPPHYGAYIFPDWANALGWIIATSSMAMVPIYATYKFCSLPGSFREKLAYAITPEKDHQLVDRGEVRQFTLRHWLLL
Description: as §1, §2

[4] = target: nonselective muscarinic receptor; assay: Binding at the nonselective muscarinic receptor from rat cerebral cortex
Description: as §1, §2

[5] = synaptosomes from rat hypothalamus, read-out: IC50, NE functional uptake

| Compound | IC50 [1] [nM] | IC50 [2, 5] [nM] | IC50 [3] [nM] | IC50 [2] [nM] | IC50 [4] [nM] |
| --- | --- | --- | --- | --- | --- |
| CC(C)(O)C[C@@H](N)C1(c2ccc(Cl)cc2)CCC1 [2-(R)-OH-DDMS, (R)-(−)-4-amino-[1-(4-chlorophenyl)cyclobutyl]-2-methyl-butan-2-ol] | 7.2 | 6.2 | 18 | – | – |
| CN[C@H](CC(C)(C)O)C1(c2ccc(Cl)cc2)CCC1 [2-(R)-OH-DMS, (R)-(+)-4-[1-(4-Chloro-phenyl)-cyclobutyl]-2-methyl-4-methylamino-butan-2-ol] | 22 | – | 48 | 23 | 8970 |
| CC(C)(O)C[C@H](N)C1(c2ccc(Cl)cc2)CCC1 [2-(S)-OH-DDMS, (S)-(+)-4-amino-[1-(4-chlorophenyl)cyclobutyl]-2-methyl-butan-2-ol] | 670 | 71 | 59 | – | – |
| CN[C@@H](CC(C)(C)O)C1(c2ccc(Cl)cc2)CCC1 [2-(S)-OH-DMS] | 5400 | – | 370 | 310 | 4480 |
| CN1[C@@H]2CC[C@H]1C[C@@H](OC(=O)C(CO)c1ccccc1)C2 (stereo partly drawn) [Atropine, reference compound] | – | – | – | – | 0.38 |
